Experiments:
[1] = molecular target: T1, PqsR (Pseudomonas aeruginosa, UniProt Q9I4X0); assay: E. coli PqsR/ppqsA-lux reporter assay; assay type: cell-based
T1 construct: expressed in transfected cells; host or cells: Escherichia coli carrying pBAD-pqsR and pCS26-ppqsA-luxCDABE
Excerpt: To determine the target(s) of the 49 hit compounds in P. aeruginosa, we assayed them in a set of E. coli-based reporter strains that read out exclusively RhlR, LasR, or PqsR function. The three assays work by a similar logic. In each case, the gene encoding one of the three quorum-sensing receptors is driven by an arabinose-inducible promoter. The receptor proteins, once made, are activated by exogenously supplied cognate autoinducer. The receptor–autoinducer complexes activate a target gene promoter fused to luciferase (prhlA-lux for RhlR, plasB-lux for LasR, and ppqsA-lux for PqsR). […] To further verify that PqsR is the target of our inhibitors, we assessed whether production of PQS and its precursor, HHQ, declined following treatment of WT P. aeruginosa with one test compound, A7. […] Below, we focus on these 30 compounds that we propose target PqsR. The other 19 compounds will be characterized at a later time.
As previously reported, following overnight growth in LB liquid medium at 37 °C, E. coli reporter strains were diluted 1:1000 in LB liquid medium containing 1% arabinose (PqsR) or 0.1% arabinose (LasR and RhlR). The reporter strain for PqsR activity carried pCS26-ppqsA-luxCDABE and pBAD-pqsR. The reporter strain for LasR activity carried pCS26-plasB-luxCDABE and pBAD-lasR; the reporter strain for RhlR activity carried pCS26-prhlA-luxCDABE and pBAD-rhlR. Test compounds were added at the specified concentrations. To activate PqsR, PQS was added at 100 nM. To activate LasR, 3O-C12-HSL was added at 5 nM. To activate RhlR, C4-HSL was added at 10 μM. To establish IC50 values, 10-point, […] serial dilution series were made starting at 100 μM of each compound. The mixtures were incubated at 37 °C for 24 h (BioSpa, Agilent). Bioluminescence and OD600 were assessed every 15 min (Neo2, Agilent). Readings from the 9 h time point, representing peak signal production, were used to calculate the IC50 values.

[2] = tested on: pphz1-lux in WT P. aeruginosa; assay: P. aeruginosa pphz1-lux bioluminescent reporter assay; assay type: cell-based, Pseudomonas aeruginosa PA14; conditions: for IC50: Pseudomonas aeruginosa, PA14, read-out: IC50 PA14; for IC50 values in P. aeruginosa: pphz1-lux in WT P. aeruginosa
Experimental: Strains were struck onto LB agar and grown overnight at 37 °C. The following day, individual colonies were isolated and transferred into LB liquid medium followed by incubation at 37 °C. After overnight growth, cultures were diluted 1:1000 into M9 medium. 100 μL of these suspensions were aliquoted into wells of 96 well plates (Corning). Plates were incubated for 24 h at 37 °C in a BioSpa Automated Incubator (Agilent). Light production and OD600 were quantified from each well at either 15 or 20 min intervals (Neo2, Agilent). When noted, SPR741 (DC Chemicals) was added at the specified concentration.
One thousand small molecules from the initial screen were selected for retesting, following the identical protocol used for the screen. Of these molecules, 751 were assayed for luciferase inhibition using P. aeruginosa containing ptac-lux instead of pphz1-lux. Any compound that inhibited this reporter by at least 50% was eliminated from the pipeline. One hundred and sixty-seven compounds were further analyzed in dilution series to determine IC50 values with respect to pphz1-lux inhibition. A ten-point, 2-fold serial dilution series was made of each test compound in DMSO solvent. The highest tested concentration was 40 μM. These assays were carried out in 384 well plates (Corning) as described above using both the P. aeruginosa ptac-lux and pphz1-lux reporter strains.

[3] = tested on: WT P. aeruginosa; assay: Quinolone (HHQ, PQS) quantitation by LCMS in culture fluids; assay type: cell-based, Pseudomonas aeruginosa; conditions: WT P. aeruginosa treated with 100 μM compound; compared with ΔpqsR
Experimental: For all assays: the designated P. aeruginosa strains were grown as described above for the pyocyanin inhibition assay. Following overnight growth, culture fluids were separated from cells by centrifugation and filtration.
For quinolone quantitation: cell-free culture fluids were extracted with 2 mL of ethyl acetate that had been acidified with 0.15 mL/L glacial acetic acid. The organic layer was isolated and dried down in vacuo. Dried samples were resuspended in 50 μL of methanol and analyzed by LCMS on an Agilent 1290 Infinity II HPLC connected to an MSD iQ. The injection was 2 μL. The mobile phase was a water–MeCN gradient containing 0.1% formic acid. Chromatography was performed as follows: 2 min hold at 5% […], ramp up to 95% MeCN over 8 min hold for 2 min at 95% MeCN, return to 5% MeCN and re-equilibrate for 1 min. Data were acquired in positive mode scanning between m/z 100–1000. Source parameters for acquisition were as follows: gas temperature 325 °C, gas flow 11 (L/min), capillary voltage 3500 V. Data were processed using Agilent OpenLAB CDS. Peaks were extracted by m/z, quantified by area under the curve. Each compound was compared to a 100 ng/μL commercial standard of PQS or HHQ.

[4] = tested on: WT P. aeruginosa; assay: Real time PCR of phzH and phzS; assay type: cell-based, Pseudomonas aeruginosa; conditions: 100 μM compound, qPCR relative to DMSO
Experimental: Following overnight growth in LB at 37 °C with aeration, P. aeruginosa strains were diluted to an OD600 of 0.001 and grown to an OD600 of 3 at 37 °C with aeration. 500 μL of cells were collected by centrifugation and flash frozen. RNA was extracted using RNAeasy Plus mini columns (Qiagen). DNA was removed, followed by cDNA synthesis, using SuperScript IV VILO Master Mix with ezDNase Enzyme (Invitrogen). RNA was quantified using PerfeCTa SYBR Green FastMix Low ROX (Quanta BioSciences). Relative quantity is calculated by ΔΔCt compared to DMSO treatment and the reference gene, rpsL. Outliers with values higher or lower than twice the standard deviation of the mean were removed.

[5] = tested on: WT P. aeruginosa; assay: Pyocyanin inhibition assay; assay type: cell-based, Pseudomonas aeruginosa; conditions: 100 μM compound
Experimental: WT P. aeruginosa and the ΔpqsE mutant were struck onto LB agar and grown overnight at 37 °C. Individual colonies were diluted into 5 mL of LB liquid medium. Aliquots were transferred into glass tubes containing test compounds with and without 8 μg/mL SPR741. WT P. aeruginosa to which DMSO had been added served as the negative control. The P. aeruginosa ΔpqsE strain to which DMSO had been added served as the positive control. Compounds were tested at 100 μM. Tubes were shaken for 18 h at 37 °C followed by centrifugation at 15,000 rpm for 5 min. Cell-free culture fluids were collected and assessed for pyocyanin by absorbance at 695 nm. Values were normalized by culture density, using absorbance at OD600. Percent inhibition of OD695/OD600 was normalized to the DMSO control.

T1 sequence (Q9I4X0 whole entry): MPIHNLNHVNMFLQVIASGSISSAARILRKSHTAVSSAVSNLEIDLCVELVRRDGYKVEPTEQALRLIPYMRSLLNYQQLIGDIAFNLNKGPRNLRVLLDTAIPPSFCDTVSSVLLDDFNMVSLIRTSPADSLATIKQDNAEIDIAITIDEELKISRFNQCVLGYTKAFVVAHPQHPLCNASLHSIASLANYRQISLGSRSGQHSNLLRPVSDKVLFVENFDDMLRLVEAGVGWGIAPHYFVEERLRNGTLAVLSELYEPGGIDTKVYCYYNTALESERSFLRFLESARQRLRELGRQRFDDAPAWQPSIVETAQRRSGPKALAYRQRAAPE

Row | Compound | IC50 [1] | IC50 [2] | other results
1 | O=C(Cn1cnc2c(oc3ccccc32)c1=O)N1CCC(Cc2ccccc2)CC1 [Compound B12] | 14500 ± 1900 nM | 10500 ± 1200 nM | 
2 | O=C(Nc1nnc(C(F)(F)F)s1)C1CC(=O)N(CCc2c[nH]c3ccc(Cl)cc23)C1 (stereo not shown) [Compound B4] | 590 ± 70 nM | 2800 ± 100 nM | 
3 | O=C(Cn1nnc(-c2ccccc2)n1)Nc1ccc(Br)cc1 [Compound C6] | 370 ± 80 nM |  | 
4 | N#Cc1cc(CN2CCC3(CC2)CC(Nc2ncccn2)C3)ccc1F [Compound A7] | 510 ± 160 nM | 2200 ± 230 nM | production of HHQ [3]: reduced to the level made by the P. aeruginosa ΔpqsR strain; production of PQS [3]: reduced to the level made by the P. aeruginosa ΔpqsR strain
5 | N#Cc1cnc(SCC(=O)Nc2ccc(Cl)c(Br)c2)nc1N [Compound C7] | 670 ± 80 nM | 2400 ± 400 nM | 
6 | O=C(NCc1cccs1)C1CCN(c2ccc3nnc(-c4ccccc4F)n3n2)CC1 [Compound B13] | 11900 ± 980 nM |  | 
7 | COc1cccc(-c2nc(CC(=O)Nc3ccc(F)cc3)no2)c1 [Compound C2] | 830 ± 170 nM | 3200 ± 80 nM | 
8 | O=C(NC1CCN(Cc2cc(F)cc(F)c2)CC1)c1cc(C(F)(F)F)n[nH]1 [Compound C8] | 270 ± 40 nM | 3900 ± 380 nM | 
9 | CC(C)Oc1ccc(N2CC(C(=O)Nc3cccc(Cl)c3Cl)CC2=O)cc1 (stereo not shown) [Compound B2] | 4700 ± 560 nM | 4900 ± 260 nM | 
10 | CC(C)C(C(=O)O)N1C(=O)C(=Cc2cccc(Br)c2)SC1=S (stereo not shown) [Compound E6] |  | 9700 ± 490 nM | 
11 | N#CCc1ccc(NC(=O)CNc2ccc(C(F)(F)F)cc2)cc1 [Compound D2] | 1320 ± 170 nM | 2300 ± 20 nM | 
12 | O=C(NC(C(=O)N1CCOCC1)C12CC3CC(CC(C3)C1)C2)c1ccc([N+](=O)[O-])cc1 (stereo not shown) [Compound B10] |  | 10500 ± 1400 nM | 
13 | O=S(=O)(c1ccc(-c2cc(C(F)(F)F)n[nH]2)s1)N1CC=C(c2ccccc2)CC1 [Compound B6] | 550 ± 120 nM | 400 ± 30 nM | IC50 values in P. aeruginosa [2]: submicromolar
14 | N#Cc1ccc(NCC2CCC3(COCCN(Cc4ccccc4OC(F)F)C3)O2)nc1 (stereo not shown) [Compound A8] | 1900 ± 440 nM | 800 ± 200 nM | phzH expression [4]: reduction only to the level displayed by the ΔpqsE mutant; phzS expression [4]: reduced to the level in the ΔpqsE strain; IC50 values in P. aeruginosa [2]: submicromolar
15 | COc1ccc(Cl)cc1C(=O)NCC(O)C1CCCCC1 (stereo not shown) [Compound D3] | 8390 ± 75 nM | 8200 ± 770 nM | 
16 | Cc1ccc(C(=O)NCc2nc(-c3ccc(Oc4ccccc4)cc3)no2)cc1 [Compound B9] | 2000 ± 240 nM |  | 
17 | O=C(NCc1ccc(OC(F)F)cc1)c1ccc(C2SCCS2)cc1 [Compound D6] | 420 ± 45 nM | 530 ± 28 nM | IC50 values in P. aeruginosa [2]: submicromolar
18 | O=S(=O)(Nc1ccc(F)cc1Cl)c1ccc(-c2cc(C(F)(F)F)n[nH]2)s1 [Compound B7] | 3800 ± 300 nM | 3500 ± 360 nM | 
19 | CCOC1CCN(C(=O)c2cccc(-c3ccc(OC(F)F)cc3)c2)CC1 [Compound C10] |  | 4400 ± 160 nM | 
20 | Cc1cc(Br)ccc1NC(=O)CNC(=O)c1ccc(-n2cnc3ccccc32)cc1 [Compound D1] | 1990 ± 880 nM | 3900 ± 320 nM | pyocyanin inhibition without versus with SPR741 [5]: improved pyocyanin inhibition in the absence of SPR741 compared to in its presence
21 | Cc1nn(-c2ccccc2)c(-n2cccc2)c1C(=O)N1CCC(C(=O)NCCc2ccccc2)CC1 [Compound B3] | 5200 ± 1700 nM | 2000 ± 280 nM | 
22 | N#Cc1cccc(CNCC2Cn3nnc(-c4ccccc4)c3CO2)c1 (stereo not shown) [Compound A9] | 3900 ± 650 nM | 38000 ± 2400 nM | 
23 | Cc1cc(Br)ccc1OCCn1cnc2ccccc2c1=O [Compound D4] | 1230 ± 310 nM | 1100 ± 28 nM | 
24 | CCOc1ccc(-n2nnnc2CNC(=O)Nc2cccc(Cl)c2)cc1 [Compound B8] | 2370 ± 770 nM | 6400 ± 1000 nM | 
25 | O=C(Nc1ccc(Cl)c(Cl)c1)c1ccc(=O)n(Cc2cccc(F)c2)n1 [Compound E5] | 2870 ± 840 nM | 2300 ± 120 nM | 
26 | Cc1noc(CN2CCCC(CCC(=O)Nc3ccc(C(F)(F)F)cc3)C2)n1 (stereo not shown) [Compound C11] | 2940 ± 830 nM | 2800 ± 190 nM | 
27 | O=C(c1csc2nc(-c3ccc(F)cc3)cn12)N1CCN(c2ccccc2F)CC1 [Compound E3] |  | 5000 ± 260 nM | 
28 | O=C(CN1CCC(c2nc(-c3cccc(F)c3)no2)CC1)Nc1ccccc1 [Compound B15] | 7040 ± 1180 nM | 8600 ± 190 nM | 
29 | Oc1cc(CN2CCC(CCn3cccn3)CC2)nc2ccc(F)cc12 [Compound C9] | 210 ± 80 nM | 7600 ± 250 nM | 
30 | CC(=O)c1cc(-c2ccccc2)n(CC(=O)Nc2nc3ccc(C)cc3s2)c1C [Compound B14] | 14500 ± 3390 nM | 11400 ± 900 nM | 

From PMC12186256, “Inhibitors of the PqsR Quorum-Sensing Receptor Reveal Differential Roles for PqsE and RhlI in Control of Phenazine Production” (ACS Chemical Biology, 2025)
